Where two headings read alike, the source gives them in different places.
Experiments:
[1] = biological target: T1, human indoleamine 2,3-dioxygenase (Homo sapiens, UniProt P14902); assay: Determination of the activity for inhibiting indoleamine 2,3-dioxygenase and IC50; assay type: biochemical; settings: purified human IDO, 200 μM L-tryptophan, 37° C., 60 minutes, pH 6.5
T1 construct: made in house; host or cells: E. coli

[2] = test system: mice with Alzheimer (AD model); assay: Morris water maze detection of behavioral changes in mice with Alzheimer; assay type: in vivo; settings: for Number of stays / Time of stay: spatial probe test, sixth day
Description: Mouse behavioral analysis was performed using a Morris water maze (Ethovision XT monitoring and analysis software, Morris water maze system, from Noldus, Netherlands). The water maze test process was divided into two parts, hidden platform acquisition test for consecutive 5 days, and spatial probe test on the sixth day, the mice were administered according to the test groups and the design doses before each test. The mice were trained 4 times a day, each time the mice were dived in different areas, the water maze was divided into areas 1, 2, 3 and 4 according to the south, east, north and west, and the platform was the 5th area located in the 4th area. […] The hidden platform acquisition test was used to detect the learning ability of mice, while the spatial probe test was used to detect the spatial memory ability of mice.
Using the statistical analysis software SPSS16.0, the escape latent period of the hidden platform acquisition test was analyzed by variance of multiple measures; and the swimming time in each quadrant and the number of crossing target in the spatial probe test were analyzed by one-way analysis of variance. The data were expressed as mean±standard deviation, and the significant level of difference was set as bilateral P=0.05.

LLC tumors = assay: In vivo antitumor activity test, LLC tumors in mice; set-up: Tumor inhibition rate: concentration or dose not given beside the values; settings: LLC tumors in C57BL6 mice, once per day, 21 days; for Tumor weight: CTX intraperitoneal 150 mg·kg^−1, compounds intragastric; for Tumor inhibition rate: from average tumor weight vs model group
[3] = test system: DC-stimulated T cell proliferation; assay: DC-stimulated T cell proliferation assay (MLR); assay type: cell-based, human; settings: MTT, A570 nm, 72 hours
Description: The human peripheral blood leukocyte layer was taken and diluted with same volume of 0.01 mol/L PBS. PBMC was routinely isolated with a lymphocyte separation medium, and the cell concentration was adjusted to 3×10^6 ml^−1 in a complete RPMI1640 medium; the cells were added to a 6-well plate, 3 ml per well, and cultured in a 5% CO2, 37° C. incubator for 2 hours, washed with PBS for 3 times to remove non-adherent cells, then added with a culture medium containing IL-4 (100 U/ml), GM-CSF (150 ng/ml) and TNF-α (500 U/ml), and then routinely cultured, the medium was changed for half every other day. After 8 days of culture, the cells were used for identification and experiment.
The human PBMC layer was separated by the method in the step 1. The macrophages were removed by the adherence method, the B cells were removed by the nylon wool fiber syringe method, and the obtained T cells were adjusted to a cell concentration of 1×10^6 cells/ml.
The mature DCs with a purity of 99% were centrifuged, added with RPMI1640 to adjust the cell concentration to 1×10^5, 4×10^4, 2×10^4/ml, and added to a 96-well plate, two wells for each concentration, 100 μl/well.
T cells were added to DCs of each of the above drug-added groups, 100 μl/well, cultured in a 5% CO2, 37° C. incubator for 72 hours; for each well, 100 μl of the culture solution was gently sucked out 6 hours before the end of the culture, and 10 μl of MTT (5 mg/ml) was added, further cultured in incubator for 6 hours, then 100 μl of 0.01 mol/L HCl-10% SDS was added, stood at 37° C. overnight, and the absorbance value (A570 nm) was determined by a microplate to show the T cell proliferation level.

[4] = mouse, in vivo
[5] = Effects of compounds on body weight of mice in the LLC tumor test; settings: LLC tumor-bearing mice

T1 sequence (P14902 whole entry): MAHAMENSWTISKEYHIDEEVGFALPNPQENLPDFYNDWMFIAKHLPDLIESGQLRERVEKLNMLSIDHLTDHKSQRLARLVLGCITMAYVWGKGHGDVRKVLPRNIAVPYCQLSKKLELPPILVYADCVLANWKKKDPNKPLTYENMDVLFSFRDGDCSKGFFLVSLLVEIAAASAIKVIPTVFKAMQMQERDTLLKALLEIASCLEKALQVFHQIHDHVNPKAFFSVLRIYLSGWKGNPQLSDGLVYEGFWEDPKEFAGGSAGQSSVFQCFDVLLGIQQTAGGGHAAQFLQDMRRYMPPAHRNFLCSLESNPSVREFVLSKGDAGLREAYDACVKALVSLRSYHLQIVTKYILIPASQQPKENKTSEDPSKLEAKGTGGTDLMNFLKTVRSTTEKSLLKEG

SMILES: N/C(=N\C(=O)CC1CC1)NCCNc1nonc1/C(=N/O)Nc1ccc(F)c(Br)c1 [XSD3-069]
- IC50 [1]: 345 nM

SMILES: N/C(=N\C(=O)CC1CC1)NCCCNc1nonc1/C(=N/O)Nc1ccc(F)c(Br)c1 [XSD3-081]
- IC50 [1]: 89 nM

SMILES: CCC(=O)NC(=N)NCCNc1nonc1/C(=N/O)Nc1ccc(F)c(Br)c1 [XSD3-052]
- IC50 [1]: 343 nM

SMILES: N/C(=N/C(=O)CC1CCC1)NCCNc1nonc1/C(=N/O)Nc1ccc(F)c(Br)c1 [XSD3-070]
- IC50 [1]: 345 nM

SMILES: N/C(=N\C(=O)CC1CCC1)NCCCNc1nonc1/C(=N/O)Nc1ccc(F)c(Br)c1 [XSD3-082]
- IC50 [1]: 101 nM

SMILES: N/C(=N\C(=O)C1CCCCC1)NCCNc1nonc1/C(=N/O)Nc1ccc(F)c(Br)c1 [XSD3-068]
- IC50 [1]: 539 nM

SMILES: N/C(=N\C(=O)C1CCC1)NCCNc1nonc1/C(=N/O)Nc1ccc(F)c(Br)c1 [XSD3-066]
- IC50 [1]: 132 nM

SMILES: NS(=O)(=O)NCCNc1nonc1C(=Nc1ccc(F)c(Br)c1)NO [INCB024360, reference compound]
- Latent period for searching platform in hidden platform test ([2]; 1st Day): 53.2 ± 2.3 s
- Latent period for searching platform in hidden platform test ([2]; 2nd Day): 51.4 ± 4.8 s
- Latent period for searching platform in hidden platform test ([2]; 3th Day): 38.6 ± 5.5 s
- Number of stays ([2]; 4th Area): 8.4 ± 1.0 times
- Time of stay ([2]; 4th Area): 16.2 ± 2.4 s
- Latent period for searching platform in hidden platform test ([2]; 4th Day): 28.7 ± 3.9 s
- Number of stays ([2]; 5th Area (platform)): 2.1 ± 0.4 times
- Time of stay ([2]; 5th Area (platform)): 3.9 ± 0.7 s
- Latent period for searching platform in hidden platform test ([2]; 5th Day): 19.9 ± 6.7 s
- Tumor weight (LLC tumors): 0.653 ± 0.178 g
- Tumor inhibition rate (LLC tumors): 56.9%
- T:DC (absorbance value) ([3]; T:DC 10:1): 0.830 ± 0.002
- T:DC (absorbance value) ([3]; T:DC 25:1): 0.804 ± 0.004
- T:DC (absorbance value) ([3]; T:DC 50:1): 0.799 ± 0.003

SMILES: N/C(=N\C(=O)C1CCC1)NCCCNc1nonc1/C(=N/O)Nc1ccc(F)c(Br)c1 [XSD3-079]
- Latent period for searching platform in hidden platform test ([2]; 1st Day): 40.5 ± 5.5 s
- Latent period for searching platform in hidden platform test ([2]; 2nd Day): 39.3 ± 44 s
- Latent period for searching platform in hidden platform test ([2]; 3th Day): 20.3 ± 4.2 s
- Number of stays ([2]; 4th Area): 14.4 ± 1.3 times
- Time of stay ([2]; 4th Area): 26.7 ± 3.3 s
- Latent period for searching platform in hidden platform test ([2]; 4th Day): 17.7 ± 5.2 s
- Number of stays ([2]; 5th Area (platform)): 3.9 ± 0.5 times
- Time of stay ([2]; 5th Area (platform)): 5.8 ± 0.7 s
- Latent period for searching platform in hidden platform test ([2]; 5th Day): 9.9 ± 5.2 s
- body weight compared with the model group [4]: no significant difference in body weight
- IC50 [1]: 95 nM
- Tumor weight (LLC tumors): 0.384 ± 0.092 g
- Tumor inhibition rate (LLC tumors): 73.4%
- T:DC (absorbance value) ([3]; T:DC 10:1): 0.876 ± 0.004
- T:DC (absorbance value) ([3]; T:DC 25:1): 0.850 ± 0.003
- T:DC (absorbance value) ([3]; T:DC 50:1): 0.837 ± 0.004

SMILES: CNC(=N)NCCNc1nonc1/C(=N/O)Nc1ccc(F)c(Br)c1 [Example 3049]
- IC50 [1]: 22 nM

SMILES: N/C(=N\C(=O)CC1CCCCC1)NCCCNc1nonc1/C(=N/O)Nc1ccc(F)c(Br)c1 [XSD3-084]
- IC50 [1]: 160 nM

SMILES: O=P1(N(CCCl)CCCl)NCCCO1 (stereo not shown) [CTX, cyclophosphamide, reference compound]
- Tumor weight (LLC tumors): 0.701 ± 0.314 g
- Tumor inhibition rate (LLC tumors): 53.7%
- Average body weight after test ([5]; after test (21 days of administration)): 19 ± 3.3 g
- Average body weight before test ([5]; before test): 22 ± 3.1 g

SMILES: N/C(=N\C(=O)Cc1ccc(Cl)cc1)NCCCNc1nonc1/C(=N/O)Nc1ccc(F)c(Br)c1 [XSD3-093-1]
- IC50 [1]: 56 nM

SMILES: N/C(=N\C(=O)CC1CCCCC1)NCCNc1nonc1/C(=N/O)Nc1ccc(F)c(Br)c1 [XSD3-072]
- IC50 [1]: 502 nM

SMILES: N/C(=N\C(=O)Cc1ccccc1)NCCCNc1nonc1/C(=N/O)Nc1ccc(F)c(Br)c1 [XSD3-093]
- IC50 [1]: 44 nM

SMILES: N/C(=N\C(=O)C1CC1)NCCNc1nonc1/C(=N/O)Nc1ccc(F)c(Br)c1 [XSD3-065]
- IC50 [1]: 118 nM

SMILES: COc1ccc(CC(=O)/N=C(\N)NCCCNc2nonc2/C(=N/O)Nc2ccc(F)c(Br)c2)cc1 [XSD3-093-3]
- IC50 [1]: 76 nM

SMILES: N/C(=N\C(=O)C1CCCC1)NCCNc1nonc1/C(=N/O)Nc1ccc(F)c(Br)c1 [XSD3-067]
- IC50 [1]: 142 nM

SMILES: N=C(N)NCCCNc1nonc1/C(=N/O)Nc1ccc(F)c(Br)c1 [Example 3048]
- IC50 [1]: 20 nM

SMILES: N/C(=N\C(=O)Cc1ccccc1)NCCNc1nonc1/C(=N/O)Nc1ccc(F)c(Br)c1 [XSD3-092]
- IC50 [1]: 399 nM

SMILES: CC(C)(C)OC(=O)N=C(NCCNc1nonc1/C(=N/O)Nc1ccc(F)c(Br)c1)NC(=O)OC(C)(C)C [Example 3051]
- IC50 [1]: 23 nM

SMILES: N/C(=N\S(=O)(=O)c1ccccc1)NCCCNc1nonc1/C(=N/O)Nc1ccc(F)c(Br)c1 [XSD3-074]
- IC50 [1]: 63 nM

SMILES: N=C(NCCNc1nonc1/C(=N/O)Nc1ccc(F)c(Br)c1)NS(=O)(=O)c1ccccc1 [XSD3-058]
- Latent period for searching platform in hidden platform test ([2]; 1st Day): 45.3 ± 3.7 s
- Latent period for searching platform in hidden platform test ([2]; 2nd Day): 41.3 ± 3.2 s
- Latent period for searching platform in hidden platform test ([2]; 3th Day): 25.4 ± 4.6 s
- Number of stays ([2]; 4th Area): 13.3 ± 1.8 times
- Time of stay ([2]; 4th Area): 25.2 ± 4.2 s
- Latent period for searching platform in hidden platform test ([2]; 4th Day): 15.5 ± 4.9 s
- Number of stays ([2]; 5th Area (platform)): 3.5 ± 0.9 times
- Time of stay ([2]; 5th Area (platform)): 5.9 ± 0.6 s
- Latent period for searching platform in hidden platform test ([2]; 5th Day): 7.3 ± 6.1 s
- body weight compared with the model group [4]: no significant difference in body weight
- IC50 [1]: 57 nM
- Tumor weight (LLC tumors): 0.400 ± 0.112 g
- Tumor inhibition rate (LLC tumors): 72.3%
- T:DC (absorbance value) ([3]; T:DC 10:1): 0.880 ± 0.003
- T:DC (absorbance value) ([3]; T:DC 25:1): 0.849 ± 0.002
- T:DC (absorbance value) ([3]; T:DC 50:1): 0.831 ± 0.002

SMILES: N=C(N)NCCNc1nonc1/C(=N/O)Nc1ccc(F)c(Br)c1 [Example 3047]
- Latent period for searching platform in hidden platform test ([2]; 1st Day): 52.3 ± 5.2 s
- Latent period for searching platform in hidden platform test ([2]; 2nd Day): 44.0 ± 4.4 s
- Latent period for searching platform in hidden platform test ([2]; 3th Day): 22.1 ± 4.5^##※ s
- Number of stays ([2]; 4th Area): 13.0 ± 1.5^##※ times
- Time of stay ([2]; 4th Area): 25.9 ± 5.2^##※ s
- Latent period for searching platform in hidden platform test ([2]; 4th Day): 10.5 ± 5.7^##※ s
- Number of stays ([2]; 5th Area (platform)): 3.8 ± 0.6^##※ times
- Time of stay ([2]; 5th Area (platform)): 5.9 ± 0.7^##※ s
- Latent period for searching platform in hidden platform test ([2]; 5th Day): 5.4 ± 6.0^##※※ s
- Average body weight before test [4]: 22 ± 3.4 g
- IC50 [1]: 37 nM
- Tumor weight (LLC tumors): 0.370 ± 0.209^##※ g
- Tumor inhibition rate (LLC tumors): 75.6%
- T:DC (absorbance value) ([3]; T:DC 10:1): 0.864 ± 0.006^##※
- T:DC (absorbance value) ([3]; T:DC 25:1): 0.834 ± 0.004^##※
- T:DC (absorbance value) ([3]; T:DC 50:1): 0.825 ± 0.007^##※

SMILES: N/C(=N\S(=O)(=O)CC1CCCCC1)NCCCNc1nonc1/C(=N/O)Nc1ccc(F)c(Br)c1 [XSD3-088]
- IC50 [1]: 72 nM

SMILES: N/C(=N\C(=O)Cc1ccc(F)cc1)NCCCNc1nonc1/C(=N/O)Nc1ccc(F)c(Br)c1 [XSD3-093-2]
- IC50 [1]: 61 nM

SMILES: N/C(=N\C(=O)C1CCCCC1)NCCCNc1nonc1/C(=N/O)Nc1ccc(F)c(Br)c1 [XSD3-078]
- IC50 [1]: 145 nM

SMILES: CC(C)(C)OC(=O)N=C(N)NCCCNc1nonc1/C(=N/O)Nc1ccc(F)c(Br)c1 [Example 3053]
- IC50 [1]: 16 nM

SMILES: N/C(=N\C(=O)C1CCCC1)NCCCNc1nonc1/C(=N/O)Nc1ccc(F)c(Br)c1 [XSD3-080]
- IC50 [1]: 87 nM

SMILES: N/C(=N\S(=O)(=O)CC1CCCCC1)NCCNc1nonc1/C(=N/O)Nc1ccc(F)c(Br)c1 [XSD3-089]
- IC50 [1]: 67 nM
